Assay results published in PubChem BioAssay (NCI).
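How tested: cells in 96-well plates exposed to compound for 48 hours at five concentrations. GI50 is the concentration that inhibits growth by half. TGI denotes the concentration required for complete inhibition of growth.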

What was measured:
Assay in all cases: NCI-60 cell line screen, 48 h
OVCAR-4 ovarian = test system: OVCAR-4 ovarian
DMS 114 small cell lung = test system: DMS 114 small cell lung
SN12C renal = test system: SN12C renal
MOLT-4 leukemia = test system: MOLT-4 leukemia
HCT-116 colon = test system: HCT-116 colon
ACHN renal = test system: ACHN renal
RPMI-8226 leukemia = test system: RPMI-8226 leukemia
IGROV1 ovarian = test system: IGROV1 ovarian
OVCAR-3 ovarian = test system: OVCAR-3 ovarian
SK-MEL-5 melanoma = test system: SK-MEL-5 melanoma

Structure (SMILES)	TGI (OVCAR-4 ovarian) [µM]	TGI (DMS 114 small cell lung) [µM]	TGI (SN12C renal) [µM]	TGI (MOLT-4 leukemia) [µM]	TGI (HCT-116 colon) [µM]	TGI (ACHN renal) [µM]	TGI (RPMI-8226 leukemia) [µM]	TGI (IGROV1 ovarian) [µM]	TGI (OVCAR-3 ovarian) [µM]	TGI (SK-MEL-5 melanoma) [µM]	GI50 (OVCAR-4 ovarian) [µM]	GI50 (DMS 114 small cell lung) [µM]	GI50 (SN12C renal) [µM]	GI50 (MOLT-4 leukemia) [µM]	GI50 (OVCAR-3 ovarian) [µM]	GI50 (SK-MEL-5 melanoma) [µM]	GI50 (HCT-116 colon) [µM]	GI50 (ACHN renal) [µM]	GI50 (RPMI-8226 leukemia) [µM]	GI50 (IGROV1 ovarian) [µM]
CCCCCCCCCCCCOC(=S)NCCCC	99.7	37.7	45.2	36	35	50.5	34.2	81.1												
COc1ccc(-c2cc(=O)c3cc4c(cc3[nH]2)OCO4)c(OC)c1OC	> 100	> 100	> 100	> 100	> 100	> 100	> 100	> 100	> 100	> 100										
CCCc1[nH]nc(CCC(=O)N(Cc2ccccc2)Cc2ccccc2)c1CC	> 100	> 100	> 100	> 100		> 100	> 100	> 100	> 100	> 100										
c1cc(-c2cn3ccsc3n2)ccn1	> 100	> 100	> 100	> 100	> 100	> 100	> 81.4	> 100	> 100	> 100										
O=C(c1ccc(F)cc1)c1cccc(C(=O)c2ccc(F)cc2)n1	> 100	96.4	> 56.2	> 100	81.8	> 100	> 100	79.3	> 100	> 79.2										
NC(=S)N/N=C(/CC(=O)c1ccccc1)C(=O)Nc1ccc(Cl)c(Cl)c1	> 100	> 100	> 100	93.7	> 100	> 100	> 100	> 100	> 100	> 100										
CC(=O)NC(CCCNCc1ccccc1)C(=O)NCc1ccccc1 (stereo not given)	> 100	> 100	> 100	> 100	> 100	> 100	> 100	> 100	> 100	> 100										
CNS(=O)(=O)NN(C)S(=O)(=O)c1ccc(F)cc1	> 100	> 100	> 100	> 100	> 100	> 100	> 100	> 100	> 100	> 100										
COc1cccc(NC(=O)CC(=O)N2N=C(N(CCC#N)c3ccc(Cl)cc3)CC2c2ccccc2)c1 (stereo not given)	> 100	> 100	> 100	> 100	> 100	> 100	> 100	> 100	> 100	> 100										
Cc1ccc(C(=O)O/N=C2/CCC/C2=C\c2ccccc2)cc1	> 100	> 100	> 100	> 100	> 100	> 100	> 100	> 100	> 100	> 100										
CN(C(=O)C12C3C4C5C3C1(C(=O)O)C5C42)C(C)(C)C (stereo not given)	> 100	72.6	> 100	> 100	> 100	> 100	> 100	> 100	> 100	> 100										
O=C([O-])c1ccccc1Nc1ccccn1.O=C([O-])c1ccccc1Nc1ccccn1.[Ni+2]	> 100	> 100	> 100	> 100	> 100	> 100	> 100	> 100	> 100	> 100	> 100	> 100	> 100	89.8	> 100	73.9	> 100	> 100	> 100	> 100
COC(=O)c1csnn1		> 100	> 100	> 100	> 100	> 100	> 100	> 100	> 100	> 100										
COc1ccccc1NC(=O)C1=C(C)NC(C)=C(C(=O)Nc2ccccc2OC)C1c1ccccc1F	> 100	> 100	> 100	> 100	> 100	> 100	> 100	> 100	> 100	> 100										
C=CCC1([C@H](C)[C@@H](OC(C)=O)c2cc(OC)c(OC)c(OC)c2)C[C@@H](OC)CCC1=O (stereo not given in full)	85.1	44.4	37	94.3	32.3	41.4	50.3	33.5	50.5	> 100										
Cc1cc(N(CCC#N)S(=O)(=O)c2ccccc2)ccc1/C=C1N=C(/C=C/c2ccccc2)OC\1=O		> 100	> 100	> 100	> 100	> 100	> 100	> 100	> 100	> 100										
COc1ccccc1NC(=O)CC(=O)N1N=C(C)C(N=Nc2ccc(S(N)(=O)=O)cc2)C1=O (stereo not given)	> 100	> 100	> 100	> 100	> 100	> 100	> 100	> 100	> 100	> 100										
C[N+](C)(C)CC(=O)N/N=C(/Cc1nc2c3c(ccc2[nH]c1=O)C(=O)c1ccccc1C3=O)C(=O)Nc1ccc(Cl)c(Cl)c1	> 100	> 100	> 100	> 100	> 100	> 100	> 100	> 100	> 100	> 100										
Cc1ccncc1.[O]=[Ge].[O]=[Ge].[O]=[Ge].[O]=[Ge].[O]=[Ge].[O]=[Ge][OH].[O]=[Ge][OH]	> 100	> 100	> 100	> 100	> 100	> 100	> 100	> 100	> 100	> 100	> 100	> 100	> 100	> 100	> 100	> 100	> 100	> 100	> 100	> 100
CC(C)(C)OC(=O)C#CC[C@H]1CCCC1/C=C/C(O)=C1/C(=O)NC(CCCNC(=O)OC(C)(C)C)C1=O (stereo not given in full)	94.1	61.3	> 100	75.9	23.9	> 100	84.5	> 100	> 100	> 100										
CCN(CC)CCn1ccc(=O)c2cc3c(=O)ccn(CCN(CC)CC)c3c(C)c21	9.43	27.6	21.3	> 100	9.08	20.1	6.8	22	23.6	29.1										
CC1=NCCc2c1[nH]c1cc(O)ccc21	> 100	> 100	> 100	> 100	> 100	> 100	> 100	> 100	> 100	> 100										
O=c1c2c([nH]c3cc4c(cc13)OCO4)-c1ccccc1CC2	> 100	> 100	> 100	> 100	> 100	> 100	> 100	> 100	> 100	> 100										
CC(=O)NNc1nc(C)c(C(=O)NNC(=O)C(=O)Nc2ccccc2C#N)s1	> 100	> 100	> 100	> 100	> 100	> 100	> 100	> 100	> 100	> 100										
